For the test, the system named is MV-4-11 cells. Nature of the test: Gene expression microarray analysis (Affymetrix PrimeView) and GSEA. The class given is cell-based, human. More on the design: RFU PODN (11730768_x_at) / Fold change /veh PODN (11730768_x_at) / RFU LINC00158 (11744669_a_at) / Fold change /veh LINC00158 (11744669_a_at) / RFU DUSP10 (11751237_a_at) / Fold change /veh DUSP10 (11751237_a_at) / RFU ID3 (11757404_x_at) / Fold change /veh ID3 (11757404_x_at) / RFU PLEKHG5 (11737974_s_at) / Fold change /veh PLEKHG5 (11737974_s_at) / RFU LRRC4B (11730491_at) / Fold change /veh LRRC4B (11730491_at) / RFU GIMAP4 (11747438_a_at) / Fold change /veh GIMAP4 (11747438_a_at) / RFU KRT8 (11758183_x_at) / Fold change /veh KRT8 (11758183_x_at) / RFU CNN1 (11734310_a_at) / Fold change /veh CNN1 (11734310_a_at) / RFU VPS37D (11726825_at) / Fold change /veh VPS37D (11726825_at) / RFU C10orf10 (11716522_x_at) / Fold change /veh C10orf10 (11716522_x_at) / RFU KIR2DL2 /// KIR2DL4 /// KIR2DL5A /// KIR2DL5B /// KIR2DS1 /// KIR2DS2 /// KIR2DS3 /// KIR2DS4 /// KIR3DL3 /// KIR3DL3 /// KIR3DS1 (11738374_at) / Fold change /veh KIR2DL2 /// KIR2DL4 /// KIR2DL5A /// KIR2DL5B /// KIR2DS1 /// KIR2DS2 /// KIR2DS3 /// KIR2DS4 /// KIR3DL3 /// KIR3DL3 /// KIR3DS1 (11738374_at) / RFU C1QL1 (11718748_at) / Fold change /veh C1QL1 (11718748_at) / RFU TMPRSS4 (11747572_a_at) / Fold change /veh TMPRSS4 (11747572_a_at) / RFU HAMP (11756126_x_at) / Fold change /veh HAMP (11756126_x_at) / RFU RNFT2 (11725882_a_at) / Fold change /veh RNFT2 (11725882_a_at) / RFU NR4A2 (11747474_a_at) / Fold change /veh NR4A2 (11747474_a_at) / RFU ABCC12 (11746883_a_at) / Fold change /veh ABCC12 (11746883_a_at) / RFU TMEM136 (11760407_x_at) / Fold change /veh TMEM136 (11760407_x_at) / RFU CLDN22 /// WWC2 (11732394_at) / Fold change /veh CLDN22 /// WWC2 (11732394_at) / RFU HLA-DPB1 (11760878_x_at) / Fold change /veh HLA-DPB1 (11760878_x_at) / RFU SPINT1 (11716480_a_at) / Fold change /veh SPINT1 (11716480_a_at) / RFU GAP43 (11754022_s_at) / Fold change /veh GAP43 (11754022_s_at) / RFU A4GNT (11735810_at) / Fold change /veh A4GNT (11735810_at) / RFU PRB3 (11715151_x_at) / Fold change /veh PRB3 (11715151_x_at) / RFU TUBB4B (11761932_at) / Fold change /veh TUBB4B (11761932_at) / RFU CAPN14 (11732068_a_at) / Fold change /veh CAPN14 (11732068_a_at) / RFU TMCC2 (11721928_a_at) / Fold change /veh TMCC2 (11721928_a_at) / RFU IRGQ (11745062_a_at) / Fold change /veh IRGQ (11745062_a_at) / RFU FAM174B (11720279_a_at) / Fold change /veh FAM174B (11720279_a_at) / RFU TMPRSS4 (11748680_a_at) / Fold change /veh TMPRSS4 (11748680_a_at) / RFU FAM212B (11763350_a_at) / Fold change /veh FAM212B (11763350_a_at) / RFU PLEKHG5 (11743358_a_at) / Fold change /veh PLEKHG5 (11743358_a_at) / RFU ZSCAN30 (11745921_a_at) / Fold change /veh ZSCAN30 (11745921_a_at) / RFU CMKLR1 (11741424_a_at) / Fold change /veh CMKLR1 (11741424_a_at) / RFU LOC101060620 /// MAPK8IP1 (11723275_at) / Fold change /veh LOC101060620 /// MAPK8IP1 (11723275_at) / RFU SPTSSB (11747773_x_at) / Fold change /veh SPTSSB (11747773_x_at) / RFU PRSS12 (11739890_at) / Fold change /veh PRSS12 (11739890_at) / RFU BIN1 (11741810_x_at) / Fold change /veh BIN1 (11741810_x_at) / RFU WNT11 (11732464_a_at) / Fold change /veh WNT11 (11732464_a_at) / RFU C10orf10 (11716521_a_at) / Fold change /veh C10orf10 (11716521_a_at) / RFU C5orf56 (11738089_at) / Fold change /veh C5orf56 (11738089_at) / RFU CYB561 (11721691_x_at) / Fold change /veh CYB561 (11721691_x_at) / RFU ANKRD19P (11752326_a_at) / Fold change /veh ANKRD19P (11752326_a_at) / RFU OR2T12 /// OR2T33 /// OR2T8 (11738714_s_at) / Fold change /veh OR2T12 /// OR2T33 /// OR2T8 (11738714_s_at) / RFU VCAN (11748164_a_at) / Fold change /veh VCAN (11748164_a_at) / RFU JSRP1 (11732532_at) / Fold change /veh JSRP1 (11732532_at) / RFU KRTAP10-11 (11738290_x_at) / Fold change /veh KRTAP10-11 (11738290_x_at) / RFU MYO3A (11730013_a_at) / Fold change /veh MYO3A (11730013_a_at) / RFU EBF3 (11725865_a_at) / Fold change /veh EBF3 (11725865_a_at) / RFU CAMK2N1 (11719241_x_at) / Fold change /veh CAMK2N1 (11719241_x_at) / RFU C5orf56 (11738088_a_at) / Fold change /veh C5orf56 (11738088_a_at) / RFU OLFML3 (11715873_a_at) / Fold change /veh OLFML3 (11715873_a_at) / RFU LOC100653217 /// NTM (11731650_a_at) / Fold change /veh LOC100653217 /// NTM (11731650_a_at) / RFU MAPK11 (11762145_a_at) / Fold change /veh MAPK11 (11762145_a_at) / RFU FIZ1 (11724087_x_at) / Fold change /veh FIZ1 (11724087_x_at) / RFU OASL (11726364_x_at) / Fold change /veh OASL (11726364_x_at) / RFU SOX15 (11748057_x_at) / Fold change /veh SOX15 (11748057_x_at) / RFU CD79A (11719716_a_at) / Fold change /veh CD79A (11719716_a_at) / RFU HIST1H1D (11736915_at) / Fold change /veh HIST1H1D (11736915_at) / RFU CASKIN2 (11723855_a_at) / Fold change /veh CASKIN2 (11723855_a_at) / RFU LOC730098 (11760151_x_at) / Fold change /veh LOC730098 (11760151_x_at) / RFU OR4N2 (11742367_at) / Fold change /veh OR4N2 (11742367_at) / RFU PRRT2 (11749266_a_at) / Fold change /veh PRRT2 (11749266_a_at) / RFU SNX32 (11753110_a_at) / Fold change /veh SNX32 (11753110_a_at) / RFU CDHR5 (11726645_a_at) / Fold change /veh CDHR5 (11726645_a_at) / RFU RCAN1 (11760418_a_at) / Fold change /veh RCAN1 (11760418_a_at) / RFU FAM167A (11723789_a_at) / Fold change /veh FAM167A (11723789_a_at) / RFU FAM26E (11764081_at) / Fold change /veh FAM26E (11764081_at) / RFU ISYNA1 (11749810_s_at) / Fold change /veh ISYNA1 (11749810_s_at) / RFU ACY1 (11761880_at) / Fold change /veh ACY1 (11761880_at) / RFU 11764098_at / Fold change /veh 11764098_at / RFU SAMD14 (11745864_x_at) / Fold change /veh SAMD14 (11745864_x_at) / RFU NPB (11741838_a_at) / Fold change /veh NPB (11741838_a_at) / RFU TMPRSS6 (11731388_a_at) / Fold change /veh TMPRSS6 (11731388_a_at) / RFU KRTAP10-2 (11738614_at) / Fold change /veh KRTAP10-2 (11738614_at) / RFU ARHGAP8 /// PRR5-ARHGAP8 (11727945_x_at) / Fold change /veh ARHGAP8 /// PRR5-ARHGAP8 (11727945_x_at) / RFU KRTAP5-7 /// NADSYN1 (11734609_at) / Fold change /veh KRTAP5-7 /// NADSYN1 (11734609_at) / RFU RASL12 (11751679_a_at) / Fold change /veh RASL12 (11751679_a_at) / RFU CDKN2B (11736163_a_at) / Fold change /veh CDKN2B (11736163_a_at) / RFU PRF1 (11729649_at) / Fold change /veh PRF1 (11729649_at) / RFU, ZNF638 /// ZNF638-IT1 / Fold change vs veh, ZNF638 /// ZNF638-IT1 / RFU, PANK3 / Fold change vs veh, PANK3 / RFU, SH3YL1 / Fold change vs veh, SH3YL1 / RFU, ZEB2 / Fold change vs veh, ZEB2 / RFU, NRIP1 / Fold change vs veh, NRIP1 / RFU, PTTG1IP / Fold change vs veh, PTTG1IP / RFU, CAPN2 / Fold change vs veh, CAPN2 / RFU, MED14 / Fold change vs veh, MED14 / RFU, SNORA58 / Fold change vs veh, SNORA58 / RFU, C1orf63 / Fold change vs veh, C1orf63 / RFU, LRRFIP1 / Fold change vs veh, LRRFIP1 / RFU, NDUFAF7 / Fold change vs veh, NDUFAF7 / RFU, SLC12A2 / Fold change vs veh, SLC12A2 / RFU, IBTK / Fold change vs veh, IBTK / RFU, ESF1 / Fold change vs veh, ESF1 / Fold change vs veh, TMEM50B / RFU, TAOK1 / Fold change vs veh, TAOK1 / RFU, ACBD3 / Fold change vs veh, ACBD3 / RFU, TMA16 / Fold change vs veh, TMA16 / RFU, RWDD3 / Fold change vs veh, RWDD3 / RFU, BCAT1 / Fold change vs veh, BCAT1 / RFU, EDEM3 / Fold change vs veh, EDEM3 / RFU, TMEM33 / Fold change vs veh, TMEM33 / RFU, WDR75 / Fold change vs veh, WDR75 / RFU, AHCTF1 / Fold change vs veh, AHCTF1 / RFU, TFRC / Fold change vs veh, TFRC / RFU, ZDHHC17 / Fold change vs veh, ZDHHC17 / RFU, NOM1 / Fold change vs veh, NOM1 / RFU, ARL8B / Fold change vs veh, ARL8B / RFU, ZBTB11 / Fold change vs veh, ZBTB11 / RFU, TAMM41 / Fold change vs veh, TAMM41 / RFU, KIAA1704 /// LOC100996395 / Fold change vs veh, KIAA1704 /// LOC100996395 / RFU, ING1 / Fold change vs veh, ING1 / RFU, TRMT61B / Fold change vs veh, TRMT61B / RFU, FUBP3 / Fold change vs veh, FUBP3 / RFU, TP53 / Fold change vs veh, TP53 / RFU, TNKS2 / Fold change vs veh, TNKS2 / RFU, ZFP14 / Fold change vs veh, ZFP14 / RFU, ACTR2 / Fold change vs veh, ACTR2 / RFU, PPP3R1 / Fold change vs veh, PPP3R1 / RFU, PIK3R1 / Fold change vs veh, PIK3R1 / RFU, HNRNPA1 / Fold change vs veh, HNRNPA1 / RFU, RNF170 / Fold change vs veh, RNF170 / RFU, ZNF28 / Fold change vs veh, ZNF28 / RFU, RNGTT / Fold change vs veh, RNGTT / RFU, OGT / Fold change vs veh, OGT / RFU, BRD1 / Fold change vs veh, BRD1 / RFU, MARS / Fold change vs veh, MARS / RFU, ZNF655 / Fold change vs veh, ZNF655 / RFU, FAHD1 / Fold change vs veh, FAHD1 / RFU, BDP1 / Fold change vs veh, BDP1 / RFU, LRRCC1 / Fold change vs veh, LRRCC1 / RFU, ARID1A / Fold change vs veh, ARID1A / RFU, ZNF146 / Fold change vs veh, ZNF146 / RFU, ZNF330 / Fold change vs veh, ZNF330 / RFU, GPN3 / Fold change vs veh, GPN3 / RFU, C9orf123 / Fold change vs veh, C9orf123 / RFU, N4BP2L2 / Fold change vs veh, N4BP2L2 / RFU, ARFIP1 / Fold change vs veh, ARFIP1 / RFU, FAM179B / Fold change vs veh, FAM179B / RFU, BCL10 / Fold change vs veh, BCL10 / RFU, UHRF1BP1L / Fold change vs veh, UHRF1BP1L / RFU, BET1 / Fold change vs veh, BET1 / RFU, CNOT2 / Fold change vs veh, CNOT2 / RFU, ZNF268 / Fold change vs veh, ZNF268 / Fold change vs veh, ZNF507 / RFU, DGCR2 / Fold change vs veh, DGCR2 / RFU, WDSUB1 / Fold change vs veh, WDSUB1 / Fold change vs veh, HSP90B1 /// MIR3652 / RFU, ADSS / Fold change vs veh, ADSS / RFU, GK / Fold change vs veh, GK / RFU, ZNF148 / Fold change vs veh, ZNF148 / RFU, TAF9 / Fold change vs veh, TAF9 / RFU, SLC1A5 / Fold change vs veh, SLC1A5 / RFU, SLMO2 / Fold change vs veh, SLMO2 / RFU, ABCC4 / Fold change vs veh, ABCC4 / RFU, LOC101060439 /// RAP1B / Fold change vs veh, LOC101060439 /// RAP1B / RFU, RFX7 / Fold change vs veh, RFX7 / RFU, GTPBP10 / Fold change vs veh, GTPBP10 / RFU, CNEP1R1 / Fold change vs veh, CNEP1R1 / RFU, BIVM-ERCC5 /// ERCC5 / Fold change vs veh, BIVM-ERCC5 /// ERCC5 / RFU, ILF3 / Fold change vs veh, ILF3 / RFU 11762660_at / Fold change /veh 11762660_at / RFU VCAN (11757783_s_at) / Fold change /veh VCAN (11757783_s_at) / RFU DDX43 (11728927_at) / Fold change /veh DDX43 (11728927_at) / RFU KRT8 (11758188_x_at) / Fold change /veh KRT8 (11758188_x_at) / RFU NKD1 (11759106_at) / Fold change /veh NKD1 (11759106_at) / RFU SRD5A1 (11742802_a_at) / Fold change /veh SRD5A1 (11742802_a_at) / RFU TPSAB1 /// TPSB2 (11721975_s_at) / Fold change /veh TPSAB1 /// TPSB2 (11721975_s_at) / RFU GSTM3 (11746129_a_at) / Fold change /veh GSTM3 (11746129_a_at) / RFU IL23R (11737362_x_at) / Fold change /veh IL23R (11737362_x_at) / RFU TMEM51 (11727254_a_at) / Fold change /veh TMEM51 (11727254_a_at) / RFU PIWIL2 (11732686_x_at) / Fold change /veh PIWIL2 (11732686_x_at) / RFU ORM1 (11744905_x_at) / Fold change /veh ORM1 (11744905_x_at) / RFU CCDC152 (11743942_at) / Fold change /veh CCDC152 (11743942_at) / RFU ECM1 (11717891_a_at) / Fold change /veh ECM1 (11717891_a_at) / RFU IL23R (11748794_a_at) / Fold change /veh IL23R (11748794_a_at) / RFU TNFAIP8L3 (11732012_x_at) / Fold change /veh TNFAIP8L3 (11732012_x_at) / RFU MBOAT4 (11741988_at) / Fold change /veh MBOAT4 (11741988_at) / RFU 11764193_at / Fold change /veh 11764193_at / RFU TMEM53 (11763286_at) / Fold change /veh TMEM53 (11763286_at) / RFU MAGEB2 (11727129_at) / Fold change /veh MAGEB2 (11727129_at) / RFU TMEM200A (11744735_a_at) / Fold change /veh TMEM200A (11744735_a_at) / RFU CCDC152 (11751479_a_at) / Fold change /veh CCDC152 (11751479_a_at) / RFU FAM211A (11726209_a_at) / Fold change /veh FAM211A (11726209_a_at) / RFU RGS16 (11746705_a_at) / Fold change /veh RGS16 (11746705_a_at) / RFU VCAN (11755009_s_at) / Fold change /veh VCAN (11755009_s_at) / RFU RHOB (11743442_s_at) / Fold change /veh RHOB (11743442_s_at) / RFU RGS16 (11720943_a_at) / Fold change /veh RGS16 (11720943_a_at) / RFU RGS16 (11720944_at) / Fold change /veh RGS16 (11720944_at) / RFU, VPS4B / Fold change vs veh, VPS4B / RFU, CREB1 / Fold change vs veh, CREB1 / RFU, DNAJC13 / Fold change vs veh, DNAJC13 / RFU, GNAQ / Fold change vs veh, GNAQ / RFU, CDK5R1 / Fold change vs veh, CDK5R1 / RFU, ZRANB3 / Fold change vs veh, ZRANB3 / RFU, CUL4A / Fold change vs veh, CUL4A / RFU, CCNY / Fold change vs veh, CCNY / RFU, UFL1 / Fold change vs veh, UFL1 / RFU, COG3 / Fold change vs veh, COG3 / RFU, DIAPH2 / Fold change vs veh, DIAPH2 / RFU, SKA2 / Fold change vs veh, SKA2 / RFU, AFF3 / Fold change vs veh, AFF3 / RFU, LMF1 / Fold change vs veh, LMF1 / RFU, IPO11 / Fold change vs veh, IPO11 / RFU, DFFB / Fold change vs veh, DFFB / RFU, FOXP1 / Fold change vs veh, FOXP1 / RFU, CARD8 / Fold change vs veh, CARD8 / RFU, STRN3 / Fold change vs veh, STRN3 / RFU, ADK / Fold change vs veh, ADK / RFU, RASSF2 / Fold change vs veh, RASSF2 / RFU, WIPF1 / Fold change vs veh, WIPF1 / RFU, LARP1B / Fold change vs veh, LARP1B / RFU, RASA1 / Fold change vs veh, RASA1 / RFU, RB1 / Fold change vs veh, RB1 / RFU, PPFIA1 / Fold change vs veh, PPFIA1 / RFU, MAT2A / Fold change vs veh, MAT2A / RFU, CCT5 / Fold change vs veh, CCT5 / RFU, WDR92 / Fold change vs veh, WDR92 / RFU, CUX1 / Fold change vs veh, CUX1 / RFU, TTC7A / Fold change vs veh, TTC7A / RFU, TMEM135 / Fold change vs veh, TMEM135 / RFU, DEPTOR / Fold change vs veh, DEPTOR / RFU, CPM / Fold change vs veh, CPM / RFU, DNAJB6 / Fold change vs veh, DNAJB6 / RFU, CACNA2D3 / Fold change vs veh, CACNA2D3 / RFU, DTX4 / Fold change vs veh, DTX4 / RFU, TFCP2 / Fold change vs veh, TFCP2 / RFU, GMCL1 /// GMCL1P1 / Fold change vs veh, GMCL1 /// GMCL1P1 / RFU, AEBP2 / Fold change vs veh, AEBP2 / RFU, SNHG1 /// SNORD22 /// SNORD25 /// SNORD26 /// SNORD27 /// SNORD28 /// SNORD29 /// SNORD31 / Fold change vs veh, SNHG1 /// SNORD22 /// SNORD25 /// SNORD26 /// SNORD27 /// SNORD28 /// SNORD29 /// SNORD31 / Fold change (Aza/veh), C12orf56 (ProbeSet 11735607_a_at) / Fold change (ACY-1035/veh), C12orf56 (ProbeSet 11735607_a_at) / Fold change (Aza/veh), FGFR1OP (ProbeSet 11751329_s_at) / Fold change (ACY-1035/veh), FGFR1OP (ProbeSet 11751329_s_at) / Fold change (Aza/veh), VPS36 (ProbeSet 11739960_a_at) / Fold change (ACY-1035/veh), VPS36 (ProbeSet 11739960_a_at) / RFU SYPL1 (11715823_x_at) / Fold change /veh SYPL1 (11715823_x_at) / RFU IGFBP7 (11715501_s_at) / Fold change /veh IGFBP7 (11715501_s_at) / RFU REEP3 (11722064_at) / Fold change /veh REEP3 (11722064_at) / RFU IGLL1 (11728026_x_at) / Fold change /veh IGLL1 (11728026_x_at): dose or concentration left out as unconfirmed. The following applies: ProbeSet 11725100_s_at; LIST B.

`Nc1ncn([C@@H]2O[C@H](CO)[C@@H](O)[C@H]2O)c(=O)n1` [azacitidine]: the “Fold change vs veh, ESF1” value worked out at 0.96.

These data come from paper PMC5218480 (PLoS ONE, 2017).
